Measurements reported in patent US20230272077A1, “PD-1 SIGNAL INHIBITOR COMBINATION THERAPY” (KYOTO UNIVERSITY, priority 2015, published 2023).
Entries after “also recorded” stand apart in the source; their conditions may differ.

How the values were obtained:
RENCA = experiment: RENCA-bearing BALB/c mice (tumor volume); type: in vivo, mouse; settings: RENCA in BALB/c mice, combined with anti-PD-L1 antibody
Description: Murine renal cell carcinoma RENCA cells (2×10^6) were inoculated into BALB/c mice. After 7 days, anti-PD-L1 antibody (1-111A, 150 μg) and AMPK inhibitor (Compound C: 200 μg in BBS, 200 l) were administered intraperitoneally. Anti-PD-L1 antibody was administered 3 times at a regular interval of 6 days; Compound C (C.C) was administered 7 times at a regular interval 2 days. Tumor volumes (mm^3) from day 0 to day 25 of RENCA inoculation are shown.

MC38 = experiment: Mouse therapy model, MC38-bearing mice (tumor volume, survival); type: in vivo; settings: MC38-bearing mice
Description: MC38 (5×10^5) and MethA (5×10^5) cells were intradermally injected on the right flank. MC38 was inoculated into C57BL/6 mice and MethA was inoculated into BALB/c mice. For monotherapy, mice were intraperitoneally injected with 150 μg of PD-L1 mouse antibody (1-111A) (prepared by the laboratory of the present inventors) 5 days after the tumor inoculation. Therapy with PD-L1 antibody alone was repeated three times every 5 days. For combination therapy, administration of PD-L1 antibody and chemical agents started 7 days after tumor injection. Chemical agents were injected at a regular interval of 2 days and PD-L1 antibody at a regular interval of 5 days (shown in FIG. 3b). Tumors were measured on every alternate day, and tumor volumes were calculated using the formula for typical ellipsoid, π×(length×breadth×height/6).
The following chemical reagents were used at the indicated concentrations for combination therapy. AMPK activator: A769662, 6 mg/kg (Abcam); mTOR activator: MHY1485, 3 μg/kg (Sigma-Aldrich); uncoupler: carbonylcyanide-p-trifluoromethoxyphenylhydrazone (FCCP), 1.2 mg/kg (Abcam); uncoupler: 2,4-Dinitrophenol (DNP), 1.7 mg/kg (Aldrich); SIRT1 activator: resveratrol, 0.5 mg/kg (Abcam); ROS scavenger: Mn (III) tetrakis (4-benzoic acid) porphyrin (MnTBAP), 1.25 mg/kg (Calbiochem); ROS generator: tert-butyl hydroperoxide solution (Luperox TBH70X), 200 μL/kg (Sigma-Aldrich); ATP synthase inhibitor: oligomycin, 250 μg/kg (Sigma-Aldrich); paraquat 2 mg/kg (Nakalai Tesque); oltipraz 1.9 mg/kg (Sigma); bezafibrate 1 mg/kg (ChemCruz).
All reagents were freshly prepared just before use. Each reagent was dissolved in the solvent indicated in the instructions. Note that the AMPK activator, mTOR activator, uncouplers and SIRT1 activator were prepared from fresh unused vials in each series of experiments. Dissolved reagents were diluted in PBS, and a 200 l aliquot was injected per mouse.
Murine colon adenocarcinoma MC38 cells (5×10^5) were inoculated into C57BL/6 mice. After 7 days, anti-PD-L1 antibody (1-111A, 150 μg) and AMPK inhibitor (Compound C: 200 μg in BBS, 200 μL) were administered intraperitoneally. Anti-PD-L1 antibody was administered 3 times at a regular interval of 6 days; Compound C (C.C) was administered 7 times at a regular interval 2 days.
MC38 cells (5×10^5) were inoculated into C57BL/6 mice. After 7 days, anti-PD-L1 antibody (1-111A, 150 μg) and PGC-1α/transcription factor complex activator (2-(4-{2-[(4-chlorobenzoyl)amino]ethyl}phenoxy)-2-methylpropanoic acid (bezafibrate): 10 ug in PBS, 200 ul) were administered intraperitoneally. Anti-PD-L1 antibody was administered 3 times at a regular interval of 6 days; bezafibrate was administered 7 times at a regular interval 2 days.

[1] = system: AMPK and its associated proteins ACC and SIRT1; experiment: Western blotting of DLN CD8+ T cells, AMPK pathway; type: in vivo, mouse; settings: CD8+ T cells from mice treated with PD-L1 antibody and reagent
Description: (§1) FIG. 7. […] Phosphorylation of AMPK, ACC, mTOR and S6K and the expression of SIRT1 and 4EBP1 were analyzed by Western blotting. b) MC38-bearing mice were treated with PD-L1 antibody in combination with AMPK activator (A769662) and/or mTOR activator (MHY1485) according to the same schedule as shown in FIG. 3b.
(§2) CD8^+ T cells were isolated using mouse CD8 Microbeads (Miltenyi Biotec). After washing with PBS twice, 2×10^6 cells were solubilized in a lysis buffer containing 30 mM Tris-HCl (pH.7.4), 150 mM NaCl, 10% glycerol, 0.1% SDS, 1% Triton-X-100, 0.05% Na-Doc, 5 mM EDTA (pH.8.0), protease inhibitor mixture (Roche Molecular Biochemicals) and phosphatase inhibitors (Nacalai Tesque). After measurement of protein concentrations by DC protein assay (Bio-Rad), 4 μg of proteins was mounted on 4 to 20% gradient Mini-PROTEAN TGX Gels (Bio-Rad) and electroblotted onto nitrocellulose membranes, which were then incubated in a blocking buffer of TBS containing 1% BSA. Primary antibody incubations were carried out overnight at 4° C. in blocking buffer. After washing, secondary antibody incubations were carried out at room temperature for 40 min in blocking buffer. Blots were developed with enhanced chemiluminescence (Amersham Pharmacia). […]

[2] = system: mTOR and its associated proteins S6K and 4EBP1; experiment: Western blotting of DLN CD8+ T cells, mTOR pathway; type: in vivo, mouse; settings: CD8+ T cells from mice treated with PD-L1 antibody and reagent
Description: as §1, §2

[3] = used in 1930's; cited from earlier work
[4] = reagent combined with PD-L1 antibody vs PD-L1 antibody alone

Structure (SMILES) | enhancement of efficacy of anti-PD-L1 antibody therapy (tumor volume) (RENCA) | enhancement of efficacy of anti-PD-L1 antibody therapy (tumor volume) (RENCA; listed as compound C) | enhancement of antitumor effect of PD-L1 antibody (tumor volume) (MC38; [4]) | enhancement of antitumor effect of PD-L1 antibody (tumor volume) (MC38; reagent combined with PD-L1 antibody vs PD-L1 antibody alone, listed as compound C) | activation of AMPK and its associated proteins ACC and SIRT1 [1] | activation of mTOR and its associated proteins S6K and 4EBP1 [2] | health problems in use as diet supplement [3] | antitumor activity of triple combination of PD-L1 antibody, DNP and Luperox (MC38; DNP and Luperox both with PD-L1 antibody) | antitumor effect when administered alone (MC38; reagent alone, no PD-L1 antibody, tumor volume) | survival rate (MC38; [4])
c1cc(-c2cnn3cc(-c4ccc(OCCN5CCCCC5)cc4)cnc23)ccn1 [AMPK inhibitor, 6-[4-[2-(1-Piperidinyl)ethoxy]phenyl]-3-(4-pyridinyl)pyrazolo[1,5-a]pyrimidine] | enhances the efficacy of anti-PD-L1 antibody therapy | Synergistic effect | enhances the efficacy of anti-PD-L1 antibody therapy | Synergistic effect | – | – | – | – | – | –
O=[N+]([O-])c1ccc(O)c([N+](=O)[O-])c1 [DNP, 2,4-dinitrophenol] | – | – | augmented the efficacy of PD-L1 antibody therapy; also recorded: enhance the antitumor effect of PD-L1 antibody | – | activated | also found to be activated | caused severe health problems | stronger antitumor activity; also recorded: Antitumor effect is enhanced | failed to exhibit any antitumor effect | remarkably improved the survival rate
